Results taken from patent US11738095B2, “Cyanine-containing compounds for cancer imaging and treatment” (Emory University, priority 2007, dated 2023).
“Also recorded” adds a separate entry of the source. Where two headings read alike, the source gives them in different places.

Legend:
SN12C, ACHN = experiment: uptake of IR783 in cell lines: renal; assay type: cell-based, human
From the text: (§1) The uptake of IR783 was studied and confirmed in a variety of human cell lines as shown below: […]

RAW = experiment: uptake of IR783 in cell lines: mouse macrophages; assay type: cell-based
From the text: as §1

[1] = system: human renal tissues freshly obtained from surgery; experiment: staining of fresh human renal tumor specimens with IR783 (FIG. 20)
From the text: The compounds of the invention can also be used to detect cancer in fresh (or frozen or preserved) cells. In one embodiment of this aspect of the invention, cells are obtained from small needle biopsy, needle aspiration, or other methods as known in the art. The cells after dye uptake is completed can be minced, sliced, smeared onto a slide, or any other preparation. An amount of one or more compound of the invention can be dropped onto the cells or otherwise contacted with the cells (shaken in a tube, for example). […] The cells can be imaged under a fluorescence microscope equipped with a NIR filter, for example.

VEC = experiment: uptake of IR783 in cell lines: vascular endothelia; assay type: cell-based, human
From the text: as §1

[2] = system: ARCaPM prostate cancer cells and P69 normal prostate epithelial cells; experiment: confocal fluorescence imaging of IR783 uptake, cancer versus normal cells (FIG. 14); assay type: cell-based, human
Experimental: After being washed in PBS to remove free dyes, the cells were subject to confocal fluorescence imaging. DAPI, added together with IR783, was used as a positive control for the staining of the cell nucleus. P69, representing normal human prostate epithelial cells, was stained in parallel. Images were acquired by Zeiss LSM 510 META confocal microscopy. […] 100 μM BSP was used to pre-incubate with ARCaPM, before 50 μM IR783 was added.

ARCaPM and PC3 tumors = experiment: IR783 imaging of pre-established tumors in live mice, 5 nmol tail vein (FIG. 18); assay type: in vivo, mouse
From the text: Intratibial ARCaPM tumors were also established in live mice prior to administration of IR783. 5 nmol of IR783 was given through the tail vein and imaged using a Kodak multimodal imaging system.
Subcutaneous ARCaPM and PC3 (four tumors with different sizes) tumors were established in live mice prior to the administration of IR-783. 5 nmol of IR783 were given to mice through tail vein and imaged using Kodak multimodal-imaging system.

[3] = Experimental: Mice were injected with 20 μg/Kg of IR783 and IR780 (which was 100× of the imaging dose which was 0.2 μg/Kg) and results were compared for a 28 day period. […] Zero grams means the mouse died. ICG is a FDA approved dye used for several diagnostic purposes. ICG is considered to be nontoxic. ICG is used here as a measure of the toxicity of the tested compounds.
Toxicity test of dye based on body weight gained during the treatment period from 0 to 14 days.

[4] = system: human prostate cancer cells PC3 and ARCaPM in whole blood; experiment: NIR detection of cancer cells spiked into human blood with IR783 (FIG. 17); assay type: cell-based
Experimental: IR783 can be used to detect and enrich disseminating cancer cells in the blood (FIG. 17). […] 5×10^3 human prostate cancer cells PC3 and ARCaPM were used to spike a 0.5 ml heparinized whole blood from a healthy donor. After incubation at 37° C. for 30 minutes, a gradient centrifugation (Histopaque-1077, Sigma) was applied to remove red blood cells. The remaining cells were washed 5 times in PBS, cells in 50 μl of the 250 μl total volume were smeared on a glass slide for NIR fluorescence detection. […] This method can detect as few as 10 human prostate cancer cells/ml of human blood, a concentration close to that of the estimated numbers of CTC as reported by previous investigators.

HEK293 = experiment: uptake of IR783 in cell lines: human embryonic kidney epithelial normal cells; assay type: cell-based
From the text: as §1

[5] = system: spontaneous prostate tumor in a TRAMP mouse; experiment: imaging of spontaneous TRAMP prostate tumor, fresh and after fixation (FIG. 16B, C); assay type: in vivo
Experimental: NIR imaging studies were performed to assess pharmacokinetics of the IR783 in vivo. […] This mouse was injected i.p with 0.2 μg/kg IR783 at 0 hrs. […] The dye retention in formalin fixed tissues can be as long as several weeks (data not shown).

C4-2 = experiment: effect of MHI-25 on C4-2 cells in culture (FIG. 9 top); assay type: cell-based, human; details: for cell death in culture: 24 hrs
From the text: To confirm the ability of other compounds to exert cytotoxicity against the growth of human tumors in vitro and in vivo, the effect of MHI-25 on the growth of C4-2 tumors in vitro (FIG. 9 top panel) and in mice (FIG. 9 bottom panel) was studied.

[6] = system: ARCaPM, LNCaP, ARCaPE, C4-2, PC-3; experiment: uptake of IR783 in cell lines: prostate; assay type: cell-based, human
From the text: as §1

K562 = experiment: uptake of IR783 in cell lines: leukemia; assay type: cell-based, human
From the text: as §1

NPF = experiment: uptake of IR783 in cell lines: prostate fibroblasts; assay type: cell-based, human
From the text: as §1

C4-2 tumors = experiment: effect of MHI-25 on pre-established C4-2 tumors in mice (FIG. 9 bottom); assay type: in vivo, mouse; details: 100 nmols, Day 5 after administration
[7] = system: PDAC-2.3, PDAC-3.3, BTC-3, BTC-5; experiment: uptake of IR783 in cell lines: pancreatic; assay type: cell-based, human
From the text: as §1

## CC1(C)C(=CC=C2CCCC(C=CC3=[N+](CCCCS(=O)(=O)[O-])c4ccccc4C3(C)C)=C2Cl)N(CCCCS(=O)(=O)[O-])c2ccccc21.[Na+] [IR783]
SN12C, ACHN
  Uptake: Strong
RAW
  Uptake: Very low
[1]; tissues incubated with IR783, washed
  distribution in renal tissue, confocal microscopy: concentrated in renal cancer but not normal kidney cells
[1]; tumor, transitional and normal sections
  fluorescence imaging of tumor regions: intense uptake and retention
VEC
  Uptake: Very low
[2]; 0° C., data not shown
  uptake by cancer cells at 0° C.: no uptake
[2]; 50 μM, 37° C., 30 min
  uptake, ARCaPM compared with P69: only in the cancer cells
[2]; 100 μM BSP pre-incubation, 50 μM IR783
  effect of BSP on uptake by ARCaPM cells: inhibited by BSP; also recorded: completely abolished
[2]; ARCaPM, FIG. 14
  time dependence of uptake: time-dependent fashion
[2]; ARCaPM, data not shown
  dose dependence of uptake: dose-dependent fashion
ARCaPM and PC3 tumors; intratibial ARCaPM tumors, data not shown
  tumor images: Clear tumor images were detected
ARCaPM and PC3 tumors; subcutaneous ARCaPM and PC3 tumors
  tumor images: clear tumor images can be detected
[3]; 20 μg/Kg (100× of the imaging dose), 28 day period
  toxicity: not toxic
[3]; dose 1X (imaging dose 0.2 μg/Kg), 0 day
  body weight: 20.29 g
[3]; dose 1X, 1 day
  body weight: 20.20 g
[3]; dose 1X, 2 day
  body weight: 20.23 g
[3]; dose 1X, 3 day
  body weight: 20.32 g
[3]; dose 1X, 4 day
  body weight: 20.34 g
[3]; dose 1X, 5 day
  body weight: 21.00 g
[3]; dose 1X, 6 day
  body weight: 21.87 g
[3]; dose 1X, 7 day
  body weight: 22.32 g
[3]; dose 1X, 14 day
  body weight: 23.91 g
[3]; dose 1X, 28 day
  body weight: 24.86 g
[3]; dose 10X, 0 day
  body weight: 20.57 g
[3]; dose 10X, 1 day
  body weight: 20.61 g
[3]; dose 10X, 2 day
  body weight: 20.59 g
[3]; dose 10X, 3 day
  body weight: 20.98 g
[3]; dose 10X, 4 day
  body weight: 21.02 g
[3]; dose 10X, 5 day
  body weight: 21.34 g
[3]; dose 10X, 6 day
  body weight: 21.76 g
[3]; dose 10X, 7 day
  body weight: 22.54 g
[3]; dose 10X, 14 day
  body weight: 24.01 g
[3]; dose 10X, 28 day
  body weight: 24.87 g
[3]; dose 100X (20 μg/Kg), 0 day
  body weight: 19.85 g
[3]; dose 100X, 1 day, zero grams means the mouse died
  body weight: 19.74 g
[3]; dose 100X, 2 day, zero grams means the mouse died
  body weight: 20.01 g
[3]; dose 100X, 3 day, zero grams means the mouse died
  body weight: 20.39 g
[3]; dose 100X, 4 day, zero grams means the mouse died
  body weight: 20.43 g
[3]; dose 100X, 5 day, zero grams means the mouse died
  body weight: 21.01 g
[3]; dose 100X, 6 day, zero grams means the mouse died
  body weight: 21.23 g
[3]; dose 100X, 7 day, zero grams means the mouse died
  body weight: 22.00 g
[3]; dose 100X, 14 day, zero grams means the mouse died
  body weight: 23.76 g
[3]; dose 100X, 28 day, zero grams means the mouse died
  body weight: 24.61 g
[4]
  lowest number of cancer cells detected: 10 human prostate cancer cells/ml of human blood
[4]; 37° C., 30 minutes
  fluorescence of normal periphery mononucleated cells: very low to background NIR fluorescence
[4]; 37° C., 30 minutes, whole blood of a healthy donor
  fluorescence of cancer cells: strong fluorescence signals in the cytoplasm
HEK293
  Uptake: Low
[5]; 24 hours after administration
  imaging of spontaneous prostate tumor: could be imaged
[5]; data not shown
  dye retention in formalin fixed tissues: several weeks
[5]; mouse, in vivo
  tolerance of dye accumulation in tumors to fixation: can tolerate fixation with both paraformaldehyde and glutaraldehyde
C4-2; 10 uM
  cell death in culture: did not induce cell death
C4-2; 100 uM
  cell death in culture: induced a significant cell death
C4-2; 100 μM, exposure 24 hrs
  apoptosis: clearly induced apoptosis
[6]
  Uptake: Strong
K562
  Uptake: Strong
NPF
  Uptake: Very low
C4-2 tumors
  effect on pre-established tumors: induced marked cell death, with tumors almost eliminated at Day 5
[7]
  Uptake: Strong
